Experimental findings from US20220033460A1, “IDENTIFICATION AND USE OF T CELL EPITOPES IN DESIGNING DIAGNOSTIC AND THERAPEUTIC APPROACHES FOR COVID-19” (priority 2020, published 2022) are described below.

This assay relates to TCRs from the BAL of COVID-19 patients. In kind it is cell-based, human.

Consider “LLLLDRLNQLESKMSGKGQQQQ (SARS-CoV-2 epitope) [N221-242]”, for which the “recognition of the peptide, effect of the mutation (NFAT activation)” value is listed as “unaffected”.
